Measured values from publication PMC9926234, “Iterative computational design and crystallographic screening identifies potent inhibitors targeting the Nsp3 macrodomain of SARS-CoV-2” (Proceedings of the National Academy of Sciences of the …, 2023).
Values joined by “and” are separate entries in the source; they are usually repeats but may differ in a detail not shown here. Equal values may be shown once. Read-outs that look alike come from different tables or passages of the source.

Key:
[1] = test system: P-glycoprotein (human MDR1); assay: MDR1-MDCK II cell permeability; settings: dog, MDCK-MDR1, pH 7.4
SARS-CoV-2 NSP3 Mac1 [2] = target: T1, SARS-CoV-2 NSP3 Mac1 (Severe acute respiratory syndrome coronavirus 2, UniProt P0DTD1); assay: biochemical; assay type: binding
TARG1 = target: T2, TARG1 (Homo sapiens, UniProt Q9Y530); assay: adapted HTRF-based peptide displacement assay (off-target); assay type: binding; settings: for binding / activity against TARG1: compound at 160 µM
T2 construct: Targ1_HTRF; HTRF assay; pET22b(+); His6, TEV; 1-153; made in house
T2 sequence (Q9Y530 with tags, fused parts or gaps): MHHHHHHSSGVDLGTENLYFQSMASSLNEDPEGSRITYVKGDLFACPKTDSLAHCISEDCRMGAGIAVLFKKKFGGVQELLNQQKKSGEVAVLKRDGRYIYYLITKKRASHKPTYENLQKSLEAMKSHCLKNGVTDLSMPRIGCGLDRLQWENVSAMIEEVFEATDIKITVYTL

MacroD2 = target: T3, MacroD2 (Homo sapiens, UniProt A1Z1Q3); assay: as above; assay type: binding
T3 construct: MacroD2_HTRF; HTRF assay; pET22b(+); His6, TEV, Avi; made in house
T3 sequence (A1Z1Q3 with tags, fused parts or gaps): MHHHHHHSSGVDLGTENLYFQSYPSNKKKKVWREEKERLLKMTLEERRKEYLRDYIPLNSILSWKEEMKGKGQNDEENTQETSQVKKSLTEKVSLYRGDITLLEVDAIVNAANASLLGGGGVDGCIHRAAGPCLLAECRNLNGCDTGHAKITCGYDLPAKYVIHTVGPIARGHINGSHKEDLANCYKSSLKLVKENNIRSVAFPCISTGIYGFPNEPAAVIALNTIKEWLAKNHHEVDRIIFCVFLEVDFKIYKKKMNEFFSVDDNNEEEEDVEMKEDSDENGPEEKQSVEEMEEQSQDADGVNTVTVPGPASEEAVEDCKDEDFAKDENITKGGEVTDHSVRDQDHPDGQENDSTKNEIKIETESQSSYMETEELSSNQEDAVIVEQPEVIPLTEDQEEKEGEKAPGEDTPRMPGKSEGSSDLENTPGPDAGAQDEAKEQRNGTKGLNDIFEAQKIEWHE

SARS-CoV-2 NSP3 Mac1 [3] = target: T1, SARS-CoV-2 NSP3 Mac1; assay type: binding; settings: for 1-BDC (PanDDA): 1 minus background density correction; for 1-BDC (PanDDA) / Refined occupancy: crystal soaking of Mac1; for Refined occupancy: ligand occupancy after refinement (phenix.refine)
MDR1-MDCKII cells = assay: MDR1-MDCK II cell permeability; settings: MDR1-MDCKII cells
SARS-CoV-2 NSP3 Mac1 [4] = target: T1, SARS-CoV-2 NSP3 Mac1; assay type: binding; parameters: contains a conserved macrodomain enzyme (Mac1)
Outline: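 ΔTma values are thermal shifts relative to a co-located DMSO-only control, read with 5 µM Fluorescent Yellow dye. Each compound was tested in triplicate over seven concentrations (two-fold steps, top 1,000 or 100 μM). Spearman correlation of concentration versus ΔTma tested whether the shift was dose-responsive.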

[5] = test system: P-glycoprotein (human MDR1); assay: in vitro; settings: dog; for Papp: MDCK-MDR1, pH 7.4, permeability, MDR1-MDCKII
SARS-CoV-2 NSP3 Mac1 [6] = assay: Overall hit call (binding in crystallographic soaking or the HTRF-based binding assay)
Description: Supplement pnas.2212931120.sd01.xlsx, sheet "Compound Summary" | column: HIT*

SARS-CoV-2 NSP3 Mac1 [7] = target: T1, SARS-CoV-2 NSP3 Mac1; parameters: contains a conserved macrodomain enzyme (Mac1); differential scanning fluorimetry, maximum thermal upshift; settings: binder

## CC(C(=O)O)c1cccc(C(=O)c2ccccc2)c1 (stereo not shown) [Ketoprofen]
[1]
  Papp A→B at 90 min, 10 µM: 17.6 ± 2.5 ×10⁻⁶ cm/s
  Papp B→A at 90 min, 10 µM: 16.1 ± 0.5 ×10⁻⁶ cm/s

## O=C(O)C1(F)CN(c2ncnc3[nH]c4cc(F)ccc4c23)CC12CCC2 (stereo not shown) [LL1_0023]
SARS-CoV-2 NSP3 Mac1 [2]; HTRF ADPr-peptide displacement from SARS-CoV-2 Mac1, read-out: IC50
  IC50: 6 to 10 µM and 5.8 to 10.9 µM
SARS-CoV-2 NSP3 Mac1 [2]; HTRF, read-out: IC50
  IC50: 5.8 µM and 10.9 µM
SARS-CoV-2 NSP3 Mac1 [2]; Ki estimation from HTRF-derived IC50, Cheng-Prusoff, peptide 400nM, Kd 2.68µM, read-out: Ki***
  Ki: 5 µM and 9.5 µM
TARG1; compound at 50 µM
  displacement of the ADPr-conjugated peptide (off-target activity): active
TARG1; compound at 1 mM
  displacement of the ADPr-conjugated peptide (off-target activity): 50%
MacroD2; compound at 1 mM
  displacement of the ADPr-conjugated peptide (off-target activity): 50%
SARS-CoV-2 NSP3 Mac1 [3]; PanDDA 1-BDC value of the event, crystal soak, compound concentration 100 mM, per dataset
  1-BDC: 0.28
SARS-CoV-2 NSP3 Mac1 [3]; PanDDA event map
  1-BDC (PanDDA): 0.16
SARS-CoV-2 NSP3 Mac1 [3]; crystal soak, compound concentration 100 mM, per dataset
  PanDDA hit?: TRUE
SARS-CoV-2 NSP3 Mac1 [3]; ligand modeled from this dataset, compound concentration 100 mM
  Modeled?: TRUE
SARS-CoV-2 NSP3 Mac1 [3]
  Refined occupancy: 32
SARS-CoV-2 NSP3 Mac1 [3]; true hit = binding in crystallographic soaking or the HTRF-based binding assay
  HIT*: Y
MDR1-MDCKII cells
  permeability relative to the Z8539 scaffold: 3 fold
SARS-CoV-2 NSP3 Mac1 [4]; DSF dose responsiveness, 1 µM nsp3 mac1, adj p given
  Spearman est (compound concentration vs apparent Tm): 0.98
SARS-CoV-2 NSP3 Mac1 [4]; maximal thermal upshift
  DSF max dTma: 4.53 ˚C

## O=C1CCCN1Nc1ncnc2[nH]c3cc(F)ccc3c12 [LRH-0003]
TARG1
  binding / activity against TARG1: neither neutral compounds LRH-0003 and LRH-0008 had measurable binding
MacroD2; compound at 160 µM
  binding / activity against MacroD2: neither neutral compounds LRH-0003 and LRH-0008 had measurable binding
[5]; apical to basal
  Papp: 13.8 ×10⁻⁶ cm/s
[5]; basal to apical
  Papp: 24.3 ×10⁻⁶ cm/s

## O=C(O)[C@H]1CCCC[C@H]1Nc1ncnc2[nH]c3cc(F)ccc3c12 [LRH-0021]
SARS-CoV-2 NSP3 Mac1 [2]
  binding to Mac1 in the HTRF assay, result in words: equipotent to LRH-0003
SARS-CoV-2 NSP3 Mac1 [2]; IC50 [µM], HTRF ADPr-conjugated peptide displacement
  IC50: 1.7 µM
SARS-CoV-2 NSP3 Mac1 [2]; Ki*** [µM]
  Ki: 1.5 µM
TARG1
  binding / activity against TARG1: showed binding
SARS-CoV-2 NSP3 Mac1 [3]; PanDDA event map
  1-BDC (PanDDA): 0.12
SARS-CoV-2 NSP3 Mac1 [3]; PanDDA event map, crystal soak, Compound_concentration 100 mM, Echo_dispense_volume 40 nl
  1-BDC: 0.05
SARS-CoV-2 NSP3 Mac1 [3]; PanDDA event map, crystal soak, Compound_concentration 100 mM, Echo_dispense_volume 80 nl
  1-BDC: 0.12
SARS-CoV-2 NSP3 Mac1 [3]; crystal soak, Compound_concentration 100 mM, Echo_dispense_volume 40 nl, PanDDA run (background map) dmso_34, nohits_35 or nohits_62
  PanDDA hit?: TRUE
SARS-CoV-2 NSP3 Mac1 [3]; crystal soak, Compound_concentration 100 mM, Echo_dispense_volume 80 nl, PanDDA run dmso_34
  PanDDA hit?: TRUE
SARS-CoV-2 NSP3 Mac1 [3]; ligand modeled, crystal soak, Compound_concentration 100 mM, Echo_dispense_volume 80 nl
  Modeled?: TRUE
SARS-CoV-2 NSP3 Mac1 [3]
  Refined occupancy: 24
SARS-CoV-2 NSP3 Mac1 [6]
  HIT*: Y
[5]; apical to basal
  Papp: 12 ×10⁻⁶ cm/s
[5]; basal to apical
  Papp: 9.1 ×10⁻⁶ cm/s

## O=C(c1cn[nH]c(=O)c1)N1CCC(CF)(C(=O)O)C1 (stereo not shown) [R8407, REAL250001448407]
SARS-CoV-2 NSP3 Mac1 [7]
  DSF max dTma: 0 degC

## Nc1ncnc2c1ncn2Cc1ccc(Cl)cn1 [Z0078, ZINC000559260078]
SARS-CoV-2 NSP3 Mac1 [7]
  DSF max dTma: 0.98 degC

## Nc1ncnc2c1ncn2Cc1cccc(C(F)(F)F)c1 [Z0893, ZINC000110510893]
SARS-CoV-2 NSP3 Mac1 [7]
  DSF max dTma: 0.5 degC

## CC(CSc1nnc2[nH]cnn12)c1ccccc1 (stereo not shown) [Z3280, ZINC000920153280]
SARS-CoV-2 NSP3 Mac1 [7]
  DSF max dTma: 0 degC

## Nc1ncnc2c1ncn2Cc1cc(-c2ccco2)on1 [Z4827, ZINC000681764827]
SARS-CoV-2 NSP3 Mac1 [7]
  DSF max dTma: 0.63 degC

## O=C(Nc1ccc(C(=O)NC2c3cccc(O)c3CC2C(=O)O)cc1)NC1CC1 (stereo not shown) [Z8539]
[5]; MDCK-MDR1, pH 7.4
  Papp A→B at 90 min, 10 µM: 1.1 ± 0.1 ×10⁻⁶ cm/s
  Papp B→A at 90 min, 10 µM: 0.5 ×10⁻⁶ cm/s
[5]; MDCK-MDR1, pH 7.4, cell permeability, MDCK cells, direction not given
  Papp at 90 min, 10 µM: 1.1 ×10⁻⁶ cm/s
